Columns and labels:
[1] = system: pancreatic stellate cells (PSC); assay: PSC adhesion assay on coated wells; format: cell-based, rat; settings: for restoration of CTGF-mediated PSC adhesion after EDTA: 10 mM cation, 5 mM EDTA; for inhibition of PSC adhesion to CTGF4: 2 μg/ml CTGF4 coat, EDTA 5 mM, antibodies 25 μg/ml, heparin 2 μg/ml, peptides 35 μM; for PSC adhesion supported by the coated substance: coated at 2 μg/ml; for inhibition of FN-mediated PSC adhesion: fibronectin coat
Text: Rat PSCs were isolated by a modification of the method described by Phillips et al., Gut; 52:677-82, 2003. Briefly, pancreatic tissue was digested in situ with 0.03% collagenase P (Roche, Indianapolis, Ind.) in HBSS by perfusion through the thoracic aorta. This protocol was approved by the Institutional Animal Care and Use Committee of Children's Research Institute, Columbus, Ohio. The tissue was pooled, minced with scissors, and then digested with 0.05% collagenase P, 0.02% protease XIV (Sigma, St. Louis), and DNase I (Roche, Indianapolis, Ind.) in HBSS. The resulting cell suspension was centrifuged in a 12% Optiprep gradient at 1400 g for 14 minutes. Stellate cells separated into a hazy band just above the interface of a the gradient and the aqueous buffer. This band was harvested, and the cells washed and resuspended in DMEM supplemented with 25 mM Hepes buffer, 10% FBS, and 100 U/ml penicillin in, 100 μg/ml streptomycin. The, cells were maintained at 37° C. in a humidified atmosphere of 5% CO2/95% air.
The ability of activated PSC to adhere to non-tissue culture plastic microtiter wells coated with recombinant CTGF1-4, CTGF3-4 or CTGF4 was investigated. The solid phase binding assay was carried out as described in Example 2. […] To assess the possibility that CTGF-mediated PSC adhesion involved cell surface integrins, the effect of divalent cations on cell adhesion was examined, as described in Example 2. […]
Because CTGF is a heparin-binding protein, this property was further investigated.
To identify the peptides that bind to PSCs, cell adhesion assays were carried out as described in Example 3.
To further investigate the peptide binding, P2 or P5 (10 μM) or vehicle buffer alone (no add) were added to PSC cell suspensions for 30 minutes at room temperature.

[2] = system: hepatic stellate cells (HSC); assay: HSC adhesion assay on coated wells (CyQUANT fluorescence); format: cell-based, rat; settings: for effect of divalent cation on HSC adhesion to CTGF4: 10 mM cation, after EDTA; for inhibition of CTGF4-mediated HSC adhesion: wells coated 2 μg/ml CTGF4, antibody/IgG 25 μg/ml, heparin 2 μg/ml; for HSC adhesion supported by the coated substance: coated at 2 μg/ml
Description: CTGF4 is known to be expressed in hepatic stellate cells (HSC) and to induce proliferation and extracellular matrix (ECM) production in these cells. (Williams et al., J Hepatol 32, 754-761, 2000; Paradis et al., Lab Invest 82, 767-774, 2002). The following experiments were carried out to determine if HSCs adhere to CTGF. HSCs were isolated from normal Sprague-Dowley rate by sequential perfusion with pronase/collagenase and purified by density gradient separation as described in Vyas et al. (Gastroenterology 109: 889-898, 1995).
The cells were subsequently detached using 1 mM EDTA PBS (137 mM NaCl, 2.7 mM KCl, 4.3 mM Na2HPO4, 1.4 mM KH2PO4, pH 7.3), washed twice in DMEM and resuspended in serum free medium containing 0.5% BSA. The cells-were plated (1.25×10^4 cells/well) in a 96 well plate coated with one of the following: 2 μg/ml CTGF isoform (CTGF1-4, CTGF3-4, CTGF4), 1 μg/ml laminin, or 4 μg/ml vitronectin and incubated for 20 minutes at 37° C. Subsequently the cells were washed with PBS and the adherent cells were fixed with 10% formalin and stained with CyQUANT GR dye/cell lysis buffer (Molecular Probes , Eugene, Oreg.) according to the manufacturer's instructions. The number of cells that adhered to CTGF isoforms or ECM protein was quantified by measuring the sample fluorescence intensity at Ex/Em: 480/520 nm using a micro-plate reader (CytoFluor™ 2350).
To determine if the CTGF-mediated HSC adhesion was carried out through integrin receptors, the experiment described above were carried out in the presence and absence of 10 mM EDTA. […] It is widely believed that Mn^2+ induces conformational shifts that mimic the physiological activation of β1 and β3 integrins (Roberts et al., J Biol Chem 278: 1975-1985, 2003, van der Pauw et al., J Periodontal Res 37: 317-323, 2002) as Mn^2+-induced activation leads to enhanced ligand-binding affinity and cell adhesion (Mould et al., J Biol Chem 277: 19800-19805, 2002, Loftus & Liddington J Clin Invest 100: S77-81, 1997, Lin et al., J Biol Chem 272: 14236-14243, […]).
Synthetic peptides GRGDsp (1 mM), GRGEsp (1 mM), Echistatin (2 μM) or vehicle buffer alone were added to the, HSC culture medium 30 minutes prior to plating.
In addition, adhesion assays as described in Example 1 were carried out in CTGF4 coated plates in the presence and absence of monoclonal antibody specific for αvβ3 (LM609).

integrin α5β1 = integrin α5β1 (Homo sapiens, UniProt P05556+P08648); assay: Solid phase ELISA of integrin α5β1 binding; settings: for reversal of EDTA inhibition of α5β1 binding to CTGF4: 10 mM cation; for inhibition of cell-free binding of integrin α5β1 to FN: FN 4 μg/ml
Description: In a second approach, a solid phase binding assay was used in which CTGF1-4 or FN were individually coated onto microtiter wells that were subsequently incubated with purified integrin α5β1. The presence of immobilized integrin α5β1 was detected by ELISA using an anti-integrin α5β1 antibody similar to the methods described in Example 3 above. In addition, CTGF1-4 bound to integrin α5β1 in a dose-dependent manner, with maximal binding at 2 μg/ml CTGF. This level of CTGF1-4 (2 μg/ml) binding was the same as that elicited by 2 μg/ml FN, a well known ligand of integrin α5β1. In a similar experiment, 2 μg/ml of CTGF1-4;CTGF3-4 or CTGF4 were individually precoated onto microtiter wells. Using the solid-phase assay, integrin α5β1 bound to CTGF1-4, CTGF3-4 or CTGF4 See FIG. 5 (Panel B).
To directly analyze whether α5β1 integrin binds to CTGF4, microtiter wells coated with CTGF4 (2 μg/ml) or FN (4 μg/ml) were used in an ELISA assay to detect integrin binding, as described in Example 3. For these assays, 1 μg/ml integrin α5β1, alone or in the presence of 35 μM of P2peptide (CTGF[257-272]) and 35 μM of P5 peptide (CTGF [285-291]), were added to the precoated plates. […] The binding between CTGF4 and integrin α5 β1 was blocked by peptide P5 (CTGF [285-291]) or peptide P2 (CTGF[257-272]). […]

CTGF promoter = CTGF promoter luciferase reporter pCCN2-Luc in PSCs; format: cell-based, rat; settings: P<0.01 compared with no stimulation
Description: TGF-β1 is a well characterized transcriptional activator of CTGF in other cell types. To further examine the mechanism by which TGF-β1 and other fibrogenic stimulators could influence CTGF production in PSCs, CTGF promoter activity in PSCs was evaluated using the luciferase reporter, pCCN2-Luc, as described in Gao et al., (J Hepatol 2004;40:431-8).

integrin αvβ3 = integrin αvβ3 (Homo sapiens, UniProt P05106+P06756); assay: Solid phase ELISA of integrin αvβ3 binding; settings: for inhibition of αvβ3 binding to CTGF4: 35 μM peptide pre-incubated with 1 μg/ml αvβ3
Description: Solid phase binding studies were also performed to investigate the binding of CTGF isoforms and αvβ3. Each CTGF isoform or vitronectin was individually coated onto microtiter wells at different concentrations, and the subsequent binding of αvβ3 was detected by ELISA using an anti-human αvβ3 monoclonal antibody. […] Saturation of binding occurred at 2 μg/ml for each CTGF isoform and 4 μg/ml for vitronectin.
In order to identify the αvβ3 binding site in CTGF4, eighteen synthetic peptides spanning the entire C-terminal region of CTGF4 (residues 246-349 of SEQ ID NO: 1) were synthesized and used as potential blocking agents in the solid phase binding studies as described in Example 3. Microtiter wells (Dynex Technology) were pre-coated with different CTGF isoforms at desired concentrations at 4° C. for 16 hours, and then blocked with 2% BSA at room temperature for 2 hours. The plates were washed, four times with PBS, pH 7.3, containing 1 mM CaCl2 and 1 mM MgCl2. Integrin αvβ3 (1 μg/ml) was pre-incubated with each synthetic peptide for 1 hour in blocking solution, and then added to each well, and incubated at room temperature for 3 hours. Integrin αvβ3 was detected by successive incubation with anti-human αvβ3 monoclonal antibody diluted in blocking solution (1:1000), and followed by HRP-conjugated goat anti-mouse IgG (1:4000). The color reaction was developed using the horseradish peroxidase ELISA reagents (Chemicon), and the absorbance at 450 nm was measured using Bio Assay Reader (HTS700).
The ability of mutant CTGF4 to bind to integrin αvβ3 was assessed by solid phase ELISA which measured the ability of purified integrin αvβ3 to bind to the CTGF4 mutants.

PSCs [3] = assay: PSC DNA synthesis, [3H]thymidine incorporation; format: cell-based, rat; settings: 24 hours; CTGF1-4 effect in 0.1% serum, not in serum-free medium
Description: To measure the effect of CTGF on cell proliferation, DNA synthesis was measured by ^3H incorporation in PSCs. The cells were incubated for 24 hours with 0.2 μCi [^3H] thymidine in each well (24-well plate). The incorporation of [^3H] thymidine into PSC DNA was determined using a scintillation counter after the cells had been washed with PBS, fixed with 10% methanol, treated with cold 5% trichloroacetic acid, and lysed in 0.3 N NaOH.

PSCs [4] = assay: PSC chemotaxis (migration) assay in culture insert; format: cell-based, rat; settings: substance in lower chamber
Description: To examine whether CTGF plays a role in PSC migration, a chemotaxis assay was carried out in which the migratory behavior of PSCs in the upper chamber of a culture insert was assessed following addition of CTGF to the lower chamber. […] PSC migration was also promoted by FN, PDGF or TGF-β1.

[5] = EDTA 10 mM, GRGDsp 1 mM, Echistatin 2 μM

Chain of integrin α5β1 (P08648 42-894 limits assumed): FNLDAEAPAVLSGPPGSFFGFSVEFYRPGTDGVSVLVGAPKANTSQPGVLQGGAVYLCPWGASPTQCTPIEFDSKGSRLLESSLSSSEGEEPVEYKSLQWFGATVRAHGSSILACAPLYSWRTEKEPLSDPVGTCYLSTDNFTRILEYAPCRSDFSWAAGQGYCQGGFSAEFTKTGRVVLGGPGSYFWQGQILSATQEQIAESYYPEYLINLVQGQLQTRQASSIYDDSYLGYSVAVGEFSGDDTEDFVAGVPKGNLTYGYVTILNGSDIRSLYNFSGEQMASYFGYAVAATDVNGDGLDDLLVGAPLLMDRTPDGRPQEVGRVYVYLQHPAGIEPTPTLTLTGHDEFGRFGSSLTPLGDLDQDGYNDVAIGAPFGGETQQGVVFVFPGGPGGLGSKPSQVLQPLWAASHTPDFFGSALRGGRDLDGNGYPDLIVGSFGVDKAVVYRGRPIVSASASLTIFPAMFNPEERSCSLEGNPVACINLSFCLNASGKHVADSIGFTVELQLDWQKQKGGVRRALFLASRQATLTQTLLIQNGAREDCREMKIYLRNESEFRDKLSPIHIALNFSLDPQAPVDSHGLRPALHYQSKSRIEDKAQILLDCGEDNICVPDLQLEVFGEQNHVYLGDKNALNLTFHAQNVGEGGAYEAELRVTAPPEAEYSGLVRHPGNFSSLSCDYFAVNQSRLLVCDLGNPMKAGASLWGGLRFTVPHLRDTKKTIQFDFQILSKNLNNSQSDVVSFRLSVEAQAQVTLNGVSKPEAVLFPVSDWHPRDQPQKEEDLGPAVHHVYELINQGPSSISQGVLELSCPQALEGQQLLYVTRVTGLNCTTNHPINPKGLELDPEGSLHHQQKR
Chain of integrin α5β1 (P08648 895-1049 partner limits assumed): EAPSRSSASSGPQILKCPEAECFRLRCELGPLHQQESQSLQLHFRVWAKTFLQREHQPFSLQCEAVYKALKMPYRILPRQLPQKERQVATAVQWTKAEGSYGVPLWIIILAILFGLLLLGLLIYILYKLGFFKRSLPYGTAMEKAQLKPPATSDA
Chain of integrin α5β1 (P05556 21-798): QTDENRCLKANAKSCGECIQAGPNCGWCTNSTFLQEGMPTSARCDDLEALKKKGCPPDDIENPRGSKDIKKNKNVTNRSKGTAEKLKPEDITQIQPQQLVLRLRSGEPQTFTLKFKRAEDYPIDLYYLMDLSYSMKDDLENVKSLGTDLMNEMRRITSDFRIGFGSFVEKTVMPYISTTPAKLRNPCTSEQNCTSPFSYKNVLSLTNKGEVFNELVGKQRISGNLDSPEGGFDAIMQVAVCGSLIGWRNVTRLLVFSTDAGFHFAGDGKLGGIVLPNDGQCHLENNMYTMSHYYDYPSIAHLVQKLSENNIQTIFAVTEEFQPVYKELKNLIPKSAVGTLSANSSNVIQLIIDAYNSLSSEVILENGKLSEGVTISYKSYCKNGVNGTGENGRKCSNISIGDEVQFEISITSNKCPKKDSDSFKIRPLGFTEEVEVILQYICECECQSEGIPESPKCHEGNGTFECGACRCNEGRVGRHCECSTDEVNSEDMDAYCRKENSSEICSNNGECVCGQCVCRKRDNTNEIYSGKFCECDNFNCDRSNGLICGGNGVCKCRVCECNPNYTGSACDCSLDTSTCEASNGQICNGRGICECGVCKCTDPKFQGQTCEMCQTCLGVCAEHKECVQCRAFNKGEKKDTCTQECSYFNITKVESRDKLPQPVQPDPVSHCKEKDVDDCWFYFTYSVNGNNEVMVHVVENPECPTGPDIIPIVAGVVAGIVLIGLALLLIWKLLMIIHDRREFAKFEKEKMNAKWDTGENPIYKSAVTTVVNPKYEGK
Chain of integrin αvβ3 (P06756 31-889 limits assumed): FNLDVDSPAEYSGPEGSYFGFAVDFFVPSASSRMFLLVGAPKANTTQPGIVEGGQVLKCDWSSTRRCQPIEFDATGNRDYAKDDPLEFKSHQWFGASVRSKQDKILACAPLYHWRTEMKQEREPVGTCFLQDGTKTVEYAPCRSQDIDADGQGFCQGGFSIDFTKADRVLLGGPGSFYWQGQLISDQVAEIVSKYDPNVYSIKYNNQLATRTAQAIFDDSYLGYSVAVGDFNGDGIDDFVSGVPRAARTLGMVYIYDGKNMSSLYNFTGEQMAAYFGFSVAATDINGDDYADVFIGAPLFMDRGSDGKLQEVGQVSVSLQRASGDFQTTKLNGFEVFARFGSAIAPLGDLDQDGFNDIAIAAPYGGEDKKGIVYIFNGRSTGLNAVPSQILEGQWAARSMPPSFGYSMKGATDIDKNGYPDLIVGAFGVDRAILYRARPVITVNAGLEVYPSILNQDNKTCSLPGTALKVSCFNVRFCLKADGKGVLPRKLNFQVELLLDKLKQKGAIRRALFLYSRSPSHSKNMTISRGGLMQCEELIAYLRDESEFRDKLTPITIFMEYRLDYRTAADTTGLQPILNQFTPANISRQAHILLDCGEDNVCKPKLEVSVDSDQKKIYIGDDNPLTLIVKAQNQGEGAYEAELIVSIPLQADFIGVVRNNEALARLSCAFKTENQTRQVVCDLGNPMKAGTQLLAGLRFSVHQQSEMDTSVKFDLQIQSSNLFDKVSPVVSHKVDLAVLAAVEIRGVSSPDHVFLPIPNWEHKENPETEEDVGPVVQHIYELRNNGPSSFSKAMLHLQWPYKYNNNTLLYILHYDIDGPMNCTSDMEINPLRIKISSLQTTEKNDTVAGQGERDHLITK
Chain of integrin αvβ3 (P06756 891-1048 partner limits assumed): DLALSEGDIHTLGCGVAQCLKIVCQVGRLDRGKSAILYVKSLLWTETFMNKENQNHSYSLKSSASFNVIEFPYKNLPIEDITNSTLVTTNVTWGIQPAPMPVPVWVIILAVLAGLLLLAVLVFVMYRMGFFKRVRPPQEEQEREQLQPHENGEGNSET
Chain of integrin αvβ3 (P05106 27-788): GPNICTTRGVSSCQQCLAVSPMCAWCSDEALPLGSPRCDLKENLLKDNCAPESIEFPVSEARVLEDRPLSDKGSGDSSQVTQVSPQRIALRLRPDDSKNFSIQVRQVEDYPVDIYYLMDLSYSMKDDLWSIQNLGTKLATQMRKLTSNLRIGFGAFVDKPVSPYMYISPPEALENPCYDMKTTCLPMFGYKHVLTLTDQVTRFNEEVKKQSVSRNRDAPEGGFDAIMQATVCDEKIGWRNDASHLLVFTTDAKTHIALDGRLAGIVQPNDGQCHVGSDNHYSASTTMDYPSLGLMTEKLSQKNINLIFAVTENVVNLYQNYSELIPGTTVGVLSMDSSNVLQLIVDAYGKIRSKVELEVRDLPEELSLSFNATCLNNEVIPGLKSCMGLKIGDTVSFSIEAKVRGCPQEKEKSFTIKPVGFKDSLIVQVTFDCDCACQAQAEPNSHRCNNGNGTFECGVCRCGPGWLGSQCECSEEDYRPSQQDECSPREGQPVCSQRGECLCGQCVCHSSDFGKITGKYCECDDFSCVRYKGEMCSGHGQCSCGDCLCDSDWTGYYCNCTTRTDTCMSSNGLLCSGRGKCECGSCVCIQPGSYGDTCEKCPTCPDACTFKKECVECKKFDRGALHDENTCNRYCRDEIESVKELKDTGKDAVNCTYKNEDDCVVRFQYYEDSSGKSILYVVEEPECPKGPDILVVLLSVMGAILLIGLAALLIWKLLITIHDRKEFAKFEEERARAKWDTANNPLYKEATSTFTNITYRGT

## [Ca+2] [Ca^2+]
[1]
  restoration of CTGF-mediated PSC adhesion after EDTA: restored
[2]
  effect of divalent cation on HSC adhesion to CTGF4: completely abolished
Integrin α5β1
  reversal of EDTA inhibition of α5β1 binding to CTGF4: reversed

## [Mg+2] [Mg^2+]
[1]
  restoration of CTGF-mediated PSC adhesion after EDTA: restored
[2]
  effect of divalent cation on HSC adhesion to CTGF4: restored
Integrin α5β1
  reversal of EDTA inhibition of α5β1 binding to CTGF4: reversed

## [Mn+2] [Mn^2+]
[2]
  effect of divalent cation on HSC adhesion to CTGF4: restored

## CC=O [acetaldehyde]
CTGF promoter
  activity of pCCN2-Luc in PSC: significantly increased

## CCO [ethanol]
CTGF promoter
  activity of pCCN2-Luc in PSC: significantly increased

## [Na+].[O-][Cl+2]([O-])[O-] [sodium chlorate]
[2]; [5]
  inhibition of CTGF4-mediated HSC adhesion: Inability of HSC to adhere to CTGF4
[2]; wells coated 4 μg/ml vitronectin
  inhibition of vitronectin-mediated HSC adhesion: unaffected

## CTGF[259-272]: CTGF4 peptide that covers 87.5% of the sequence of peptide CTGF[257-272] (TPKISKPIKFELSG)
Integrin αvβ3
  inhibition of αvβ3 binding to CTGF4: 67%

## EENIKKGKKCIRTP (listed as Homo sapiens) [CTGF[247-260]]
[2]
  HSC adhesion supported by the coated substance: no adhesion ability

## GRGDsp
[2]; wells coated 2 μg/ml CTGF1-4, EDTA 10 mM, GRGDsp 1 mM, Echistatin 2 μM
  inhibition of CTGF1-4-mediated HSC adhesion: 45%
[2]; wells coated 2 μg/ml CTGF3-4, EDTA 10 mM, GRGDsp 1 mM, Echistatin 2 μM
  inhibition of CTGF3-4-mediated HSC adhesion: 51%
[2]; [5]
  inhibition of CTGF4-mediated HSC adhesion: 58%

## GVCTDGR [Peptide P5]
[1]
  inhibition of PSC adhesion to CTGF4: completely inhibited
  PSC adhesion supported by the coated substance: able to support the adhesion
  inhibition of FN-mediated PSC adhesion: able to block
Integrin α5β1; peptides 35 μM, EDTA 5 mM
  inhibition of binding between CTGF4 and integrin α5β1: blocked
Integrin α5β1; peptides 35 μM
  inhibition of cell-free binding of integrin α5β1 to FN: blocked

## IRTPAAAAPIKFELSG [Mutant 2, mutant CTGF4 protein with K261A, I262A, S263A, K264A]
[2]; mutant CTGF4 proteins
  HSC adhesion relative to wild-type CTGF4: completely unable to support HSC adhesion

## IRTPKISKPIKFELSG [CTGF[257-272]]
Integrin αvβ3
  inhibition of αvβ3 binding to CTGF4: completely inhibited
Integrin αvβ3; 35 μM peptide, 4 μg/ml VN coat
  inhibition of αvβ3 binding to vitronectin: 85%
[1]
  inhibition of PSC adhesion to CTGF4: completely inhibited
  PSC adhesion supported by the coated substance: able to support the adhesion
  inhibition of FN-mediated PSC adhesion: unaffected
[2]
  HSC adhesion to coated peptide, saturation: 2 µg/mL
  HSC adhesion supported by the coated substance: promoted HSC adhesion in a concentration-dependent manner
Integrin α5β1; peptides 35 μM
  inhibition of cell-free binding of integrin α5β1 to FN: did not block

## PDGF
PSCs [3]
  PSC proliferation (DNA synthesis): significantly enhanced
PSCs [4]
  PSC migration: promoted
CTGF promoter
  activity of pCCN2-Luc in PSC: significantly increased

## chondroitinase ABC
[2]; [5]
  inhibition of CTGF4-mediated HSC adhesion: no effect

## vitronectin: ECM protein, known ligand of αvβ3 [reference compound]
Integrin αvβ3; 1 μg/ml integrin αvβ3
  saturation of αvβ3 binding at coating concentration: 4 µg/mL
